Experimental data from US20240240224A1, “FLUORESCENT D-TYPE AMINO ACID METABOLISM MARKER-BASED METHOD FOR DETECTING ANTIBACTERIAL DRUG SENSITIVITY TEST” (priority 2020, published 2024).
≈ marks a conversion by molar mass, not a printed value.

Tests used:
S. aureus ST398 [1] = experiment: FDAA metabolic labeling susceptibility test (Cy5-DAA probe, flow cytometry); format: cell-based; conditions: Staphylococcus aureus; S. aureus ST398; Cy5-DAA probe, 2 hours; read-out: MIC, FDAA
Protocol: (§1) Take the colony to be tested that has been cultured overnight on the plate and fully mix it in normal saline to make a uniform bacterial solution. Dilute it into Cation-Adjusted Mueller Hinton Broth (CAMHB) culture medium to make a bacterial solution with OD600=0.05. • 2. Add 45 μl antibiotic solutions of different concentrations to 96-well plates (see Table 1 for antibiotic concentration gradient settings). • 3. Add 50 μl of the bacterial solution prepared in step 1 to the 96-well plate and mix well. • 4. Add 5 μl of 10 mM Cy5-DAA probe (final concentration 0.15 mM, see FIG. 1 for its structure) into each well, mix well, and cultivate in dark for 2 hours. • 5. Add 200 μl After PBS solution is diluted, the fluorescence intensity of each sample is detected by flow cytometry. The flow detection results are shown in FIG. 4-5, showing the curve of the change of antibiotic concentration gradient and fluorescence intensity. The MIC (minimum inhibitory concentration) can be obtained by referring to this curve.

S. aureus ST59 [2] = experiment: as above; format: cell-based; conditions: Staphylococcus aureus; S. aureus ST59; Cy5-DAA probe, 2 hours; read-out: MIC, FDAA
Protocol: as §1

S. aureus ST5 [3] = experiment: as above; format: cell-based; conditions: Staphylococcus aureus; S. aureus ST5; Cy5-DAA probe, 2 hours; read-out: MIC, FDAA
Protocol: as §1

S. aureus ST5 [4] = experiment: Vitek 2 drug sensitivity test; format: cell-based, Staphylococcus aureus; on Sensibility: key: S: Drug sensitive; R: Drug resistance
S. aureus ST59 [5] = experiment: Vitek 2 drug sensitivity test; format: cell-based, Staphylococcus aureus; on Sensibility: key: S: Drug sensitive; R: Drug resistance
S. aureus ST398 [6] = experiment: Vitek 2 drug sensitivity test; format: cell-based, Staphylococcus aureus; on Sensibility: key: S: Drug sensitive; R: Drug resistance
E. faecium Ef26 [7] = experiment: BMD susceptibility test; format: cell-based, Enterococcus faecium; conditions: unit assumed
E. faecium Ef26 [8] = experiment: FaAST (FDAA metabolic labeling method); format: cell-based, Enterococcus faecium; conditions: unit assumed
Protocol: as §1
(§2) Bacteria with antibiotic resistance are shown in bold in the following table.

E. faecalis ATCC29212 [9] = experiment: BMD susceptibility test; format: cell-based, Enterococcus faecalis; conditions: unit assumed
E. faecalis ATCC29212 [10] = experiment: FaAST (FDAA metabolic labeling method); format: cell-based, Enterococcus faecalis; conditions: unit assumed
Protocol: as §1, §2

E. faecalis ATCC29212 [11] = conditions: cited from earlier work

BMD (MIC) (E. faecium Ef26 [7])	FaAST (MIC) (E. faecium Ef26 [8])	BMD (MIC) (E. faecalis ATCC29212 [9])	FaAST (MIC) (E. faecalis ATCC29212 [10])	Compound	MIC (S. aureus ST398 [1])	MIC (S. aureus ST59 [2])	MIC (S. aureus ST5 [3])	Sensibility (S. aureus ST5 [4])	MIC (S. aureus ST5 [4]; Staphylococcus aureus)	Sensibility (S. aureus ST59 [5])	MIC (S. aureus ST59 [5]; Staphylococcus aureus)	Sensibility (S. aureus ST398 [6])	MIC (S. aureus ST398 [6]; Staphylococcus aureus)	CLSI QC range (E. faecalis ATCC29212 [11])
				Cc1onc(-c2ccccc2)c1C(=O)N[C@@H]1C(=O)N2[C@@H]1SC(C)(C)[C@@H]2C(=O)O [OX, oxacillin]	0.25 µg/mL (≈ 0.623 µM)	32 µg/mL (≈ 79.7 µM)	≥ 1020 µg/mL	R	256 µg/mL (≈ 638 µM)	R	16 µg/mL (≈ 39.9 µM)	S	≤ 0.25 µg/mL	
64 µg/mL	32 µg/mL	2 µg/mL	4 µg/mL	CC1(C)S[C@@H]2[C@H](NC(=O)Cc3ccccc3)C(=O)N2[C@H]1C(=O)O [Penicillin G, penicillin G]										1-4
